This note sets out measurements from the NIST ThermoML archive (doi:10.1016/j.jct.2016.11.032).

Molecules are shown by their SMILES. ± gives the expanded uncertainty stated by the source.

For series [1] the following is noted: Crystal; DTA.
Series [2] in a line: Molar enthalpy of transition or fusion. To be noted: Crystal; DSC.

As to `CC(C)(C)C(O)(CCc1ccc(Cl)cc1)Cn1cncn1` (configuration not stated) [tebuconazole], in series [1], the Normal melting temperature came out at 100.32 ± 1.1 °C. Besides, the “Molar enthalpy of transition or fusion” value in series [2] amounted to 6.92 ± 0.237 kcal/mol.
